Read-outs that look alike come from different tables or passages of the source.
Key:
[1] = molecular target: T1, elastase (Homo sapiens, UniProt P08246); assay: Elastase cleavage of synthetic substrate N-methoxysuccinyl-Ala-Ala-Pro-Val-p-nitroanalide; format: biochemical; details: 2 μg of elastase, FIG. 1, read-out: IC50 for the inhibition of elastase
T1 sequence (P08246 30-247 limits assumed): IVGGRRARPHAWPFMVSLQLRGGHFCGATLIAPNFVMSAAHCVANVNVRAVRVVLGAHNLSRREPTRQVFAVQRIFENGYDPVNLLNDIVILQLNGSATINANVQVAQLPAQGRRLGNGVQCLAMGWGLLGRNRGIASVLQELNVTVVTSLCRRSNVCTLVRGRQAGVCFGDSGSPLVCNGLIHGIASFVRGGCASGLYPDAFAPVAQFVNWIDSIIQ
Experimental: (§1) Elastase activity is assayed using the specific substrate, N-methoxysuccinyl-Ala-Ala-Pro-Val-p-nitroanalide, and cathepsin G activity was measured using N-succinyl-Ala-Pro-Phe-p-nitroanalide. The assay buffer, 0.1M HEPES with 0.5M NaCl and 0.1% Brij-35, is used to dilute the elastase substrate to a final concentration of 0.2 mM and the cathepsin G substrate to 1 mM. The appropriate substrate in 2 ml of assay buffer is incubated at 37° C. in a heated spectrophotometer cell and the reaction is started by the addition of enzyme. In experiments where inhibitors were tested, the inhibitors were incubated with the enzyme for 5 min before the addition of substrate. […] was continuously monitored at 410 nm using a diode array spectrophotometer. Kinetic constants were determined using the kinetics software of the spectrophotometer.
(§2) The ability of several sulfated polymers to inhibit elastase and cathepsin G degradation of their respective substrates was examined. MDL-101,028, a compound falling within the scope of the claimed invention, where the value of n is 6, and 4,4'-Diisothiocyanatostilbene-2,2'-disulfonic acid, internally identified as MDL-101,114 (DIDS) inhibited both elastase and cathepsin G in a dose-dependent manner.

[2] = molecular target: T2, cathepsin G (Homo sapiens, UniProt P08311); assay: Cathepsin G cleavage of synthetic substrate N-succinyl-Ala-Pro-Phe-p-nitroanalide; format: biochemical; details: 2 micrograms of cathepsin G, FIG. 2, read-out: IC50 for the inhibition of cathepsin G
T2 construct: Both purified human neutrophil elastase and cathepsin G degrade CPG; from tissue; host or cells: human neutrophils
T2 sequence (P08311 21-244 limits assumed): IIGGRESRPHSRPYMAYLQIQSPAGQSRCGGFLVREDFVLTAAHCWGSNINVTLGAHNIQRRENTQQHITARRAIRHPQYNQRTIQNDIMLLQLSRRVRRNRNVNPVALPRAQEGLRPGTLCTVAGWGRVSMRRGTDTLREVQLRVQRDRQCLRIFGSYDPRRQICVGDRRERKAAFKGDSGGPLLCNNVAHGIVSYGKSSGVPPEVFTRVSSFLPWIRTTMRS
Experimental: as §1, §2

[3] = molecular target: T2, cathepsin G; assay: Cathepsin G mediated degradation of 35S-labeled cartilage matrix proteoglycan (CPG); format: biochemical; details: cartilage discs, 4 hours at 37° C., FIG. 4
Experimental: (§3) Fresh bovine nasal septa were obtained from a local abattoir and 4 mm cartilage cylinders were prepared using a No. 2 cork borer. The cylinders were sliced into 1 mm discs. The top and bottom discs were discarded and the remaining cartilage discs were pooled, washed three times in HBSS and resuspended in Dulbecco's Modified Eagles Medium (DMEM) with antibiotics and supplements. The sulfated sugars that constitute the glycosaminoglycan side chains of cartilage proteoglycan were radiolabeled by the addition of 10 μCi/ml of Na2^35 SO4 followed by incubation overnight at 37° C. with gentle rocking. […]
(§4) The ability of neutrophil proteases to degrade connective tissue matrix was measured by incubating ^35 S-radiolabeled cartilage discs with neutrophil lysate, purified elastase or cathepsin G in serumless media for 4 hours at 37° C. and collecting the supernatants and counting the radiolabeled material in the supernatants and discs. The radioactivity remaining in the cartilage discs after removal of the supernatant was assayed by completely digesting the discs in 6M HCl at 100° C. for 1 hour, removing the HCl by vacuum evaporation and resuspending the dried material in 0.5 ml HBSS. Supernatants and processed discs were counted in a Beckman LS 3801 scintillation counter. The data were expressed as the percent at ^35 S label released into the supernatant. […]

[4] = molecular target: T3, purified human neutrophil elastase (Homo sapiens, UniProt P08246); assay: Elastase mediated degradation of 35S-labeled cartilage matrix proteoglycan (CPG); format: biochemical; details: cartilage discs, 4 hours at 37° C., FIG. 3
T3 construct: Both purified human neutrophil elastase and cathepsin G degrade CPG; from tissue; host or cells: human neutrophils
T3 sequence (P08246 30-247 limits assumed): T1 sequence (P08246 30-247 limits assumed)
Experimental: as §3, §4

[5] = tested on: Human neutrophil lysate; assay: Human neutrophil lysate mediated degradation of CPG; format: biochemical; details: lysate 1:100, 4 hour at 37° C., FIG. 5
Experimental: Human neutrophil granule lysates were prepared by resuspending 2.5×10^8 in 4 ml of […] sucrose and sonicating for 30 seconds using a microtip probe. […] The neutrophil lysate was centrifuged at 1000×g for 10 min. at 4° C., the supernatant was collected and centrifuged at 30,000×g for 30 min. at 4° C. and the pellet containing neutrophil granules was resuspended in 2 ml of 0.05M sodium acetate buffer, pH 5.5, containing 1M NaCl and 0.1% Brij-35 and kept on ice for 30 min. with several brief sonications of approximately 30 seconds during the incubation period. […] The granule lysate was centrifuged at 30,000×g for 30 min. at 4° C. and the supernatant was collected, tested for elastase and cathepsin G content using synthetic substrates as described above, aliquoted and stored at […] until used.
Fresh bovine nasal septa were obtained from a local abattoir and 4 mm cartilage cylinders were prepared using a No. 2 cork borer. The cylinders were sliced into 1 mm discs. The top and bottom discs were discarded and the remaining cartilage discs were pooled, washed three times in HBSS and resuspended in Dulbecco's Modified Eagles Medium (DMEM) with antibiotics and supplements. […]
as §4

[6] = tested on: Human neutrophils; assay: Primary granule enzyme secretion (myeloperoxidase release) from neutrophils; format: cell-based; details: stimulated neutrophils
Experimental: (§5) Radiolabeled cartilage discs were placed into the wells of 96-well microtiter plates and overlayed with human neutrophils suspended in DMEM containing 10% FCS. The neutrophils were stimulated by the addition of 1 mg/ml of opsonized zymosan and incubated for 4 hours at 37° C. with 5% CO2. Connective tissue matrix degradation was quantitated by the amount of radiolabel released. In experiments using protease inhibitors, the inhibitors were added immediately after the neutrophils. The viability of the neutrophils incubated with the protease inhibitors was determined by assaying the supernatants for lactic dehydrogenase (LDH) and by neutrophil exclusion of trypan blue. In addition, the effect of protease inhibitors on primary granule enzyme secretion was monitored by measuring the release of myeloperoxidase.
(§6) The percentage of neutrophils stimulated with zymosan in media for 4 hours that excluded trypan blue was 85% compared to 77%-87% for neutrophils incubated with MDL-101,028 at doses of 4, 10, and 25 μM, respectively. This correlated with LDH release which was 9% for stimulated neutrophils treated with media, compared to 7-11% for neutrophils incubated with MDL-101,028 at concentrations of 4-25 μM.

[7] = tested on: human neutrophil elastase; assay: Elastase induced pulmonary hemorrhage in rats; format: in vivo, Male Sprague Dawley rats; details: rat; for Inhibition of lung hemorrhage (hemoglobin in lavage fluid): 100 μg elastase, FIG. 7; for Inhibition of lung hemorrhage: intratracheal, FIG. 8
Experimental: Male Sprague Dawley rats were anesthetized with chloral hydrate (300 mg/kg) and either saline or human neutrophil elastase was administered intratracheally. Briefly, rats were placed on a surgical board, ventral side up, and their mouths held open using a rubber band placed over their incisors. The tongue was held to the side and 100 micro liters of elastase solution (1 mg/ml) was administered into the trachea with the aid of a bright light source and a 3 inch, 22 gauge blunt-end needle. One hour after elastase administration, the rats were sacrificed using CO2 and the trachea was surgically exposed and cannulated. The lungs were lavaged with 10 ml of saline and the hemoglobin content was-determined using the cyanmethemoglobin assay. In experiments where inhibitors were tested, the compounds were given intratracheally in 100 μl of saline at various times before elastase administration.
Intratracheal instillation of human leukocyte elastase produced acute lung injury as assessed by hemorrhage (FIG. 7). The hemorrhage was quantified by measuring the hemoglobin content of the pulmonary lavage fluid. […] When MDL-101,028 was administered intratracheally immediately before elastase (within 30 seconds) at doses of 280 μg, 700 μg, or 2800 μg, lung hemorrhage was inhibited by 48%, 90%, and 90% respectively (FIG. 7).
MDL-101,028 was administered to rats at various time intervals before instillation of elastase to determine the duration of action.

[8] = tested on: Human neutrophils; assay: Neutrophil viability (trypan blue exclusion, lactic dehydrogenase release); format: cell-based
Experimental: as §5, §6

SMILES	IC50 [1]	IC50 [2]	IC50 ([3]; read-out: IC50, cathepsin G mediated cartilage degradation)	IC50 ([4]; read-out: IC50, elastase mediated cartilage degradation)	Inhibition of CPG degradation by neutrophil lysate ([5]; 4 μmolar)	Inhibition of CPG degradation by neutrophil lysate ([5]; 10 μmolar)	Inhibition of CPG degradation by neutrophil lysate ([5]; 25 μmolar)	Myeloperoxidase release from neutrophils [6]	Inhibition of lung hemorrhage (hemoglobin in lavage fluid) ([7]; 280 μg intratracheally immediately before elastase (within 30 seconds))	Inhibition of lung hemorrhage (hemoglobin in lavage fluid) ([7]; 700 μg intratracheally immediately before elastase (within 30 seconds))	Inhibition of lung hemorrhage (hemoglobin in lavage fluid) ([7]; 2800 μg intratracheally immediately before elastase (within 30 seconds))	Inhibition of lung hemorrhage ([7]; administered 1 hour before elastase)	Inhibition of lung hemorrhage ([7]; administered 2 hours before elastase)	Inhibition of lung hemorrhage ([7]; administered 4 hours before elastase)	Duration of action ([7]; intratracheal route)	IC50 ([3]; read-out: IC50, cathepsin G mediated CPG degradation)	IC50 ([4]; read-out: IC50, elastase mediated CPG degradation)	LDH release ([8]; concentrations of 4-25 μM, stimulated neutrophils (media control 9%), 240 min)	Percentage of neutrophils that excluded trypan blue ([8]; doses of 4, 10, and 25 μM, zymosan stimulated, 4 hours (media control 85%))	Viability of the neutrophils ([8]; trypan blue exclusion and lactic dehydrogenase release)
O=S(=O)(O)c1cc(N=C=S)ccc1C=Cc1ccc(N=C=S)cc1S(=O)(=O)O [DIDS, 4,4'-Diisothiocyanatostilbene-2,2'-disulfonic acid, reference compound]	1.1 µM	1.4 µM	50 µM	38 µM																
Cc1ccc(NC(=O)Nc2ccc(-c3ccc(NC(=O)Nc4ccc(-c5ccc(NC(=O)Nc6ccc(-c7ccc(NC(=O)Nc8ccc(-c9ccc(NC(=O)Nc%10ccc(-c%11ccc(NC(=O)Nc%12ccc(-c%13ccc(NC(=O)Nc%14ccc(C)cc%14)cc%13S(=O)(=O)O)c(S(=O)(=O)O)c%12)cc%11S(=O)(=O)O)c(S(=O)(=O)O)c%10)cc9S(=O)(=O)O)c(S(=O)(=O)O)c8)cc7S(=O)(=O)O)c(S(=O)(=O)O)c6)cc5S(=O)(=O)O)c(S(=O)(=O)O)c4)cc3S(=O)(=O)O)c(S(=O)(=O)O)c2)cc1 [MDL-101,028]	0.04 µM	0.08 µM			54%	70%	79%	not inhibited	48%	90%	90%	61%	63%	20%	greater than two hours and less than four hours	~9 µM	~8 µM	7-11%	77%-87%	not diminished

Source: patent US5384119A, “Method of preventing neutrophil mediated connective tissue damage” (Merrell Dow Pharmaceuticals Inc., priority 1993, dated 1995)
